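How tested: cells in 96-well plates exposed to compound for 48 hours at five concentrations. Abbreviation: GI50, concentration required for 50% inhibition of growth. The concentration for full growth arrest is given as TGI.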
system: SK-MEL-2 melanoma; assay: inhibition of tumour cell growth, NCI panel, 48 h

Q: `O=c1c(-c2ccccc2)c2oc(c1-c1ccccc1)CSCc1cccc(c1)CSC2` was tested. Which TGI did it give?
A: Its TGI is > 100 µM.

system: RPMI-8226 leukemia; assay: inhibition of tumour cell growth, NCI panel, 48 h

Q: What does the source list for `COc1cc(/C(C#N)=C/c2nc3c(N4CCOCC4)nc(Cl)nc3n2C)cc(OC)c1OC`?
A: GI50: < 0.01 µM; TGI: 1.88 µM

Q: For `Cc1nnc(NC(=O)c2nc(S(=O)(=O)Cc3ccc(F)cc3)ncc2Cl)s1`, which GI50 is on record?
A: The GI50 was 2.21 µM.

Q: What about the TGI of the same molecule?
A: The TGI was 12.8 µM.

Q: How did the GI50 turn out when `CC(C)[C@@H]1C=C2CC[C@H]3[C@](C)(CN)CCC[C@]3(C)[C@H]2CC1` was run?
A: Its GI50 is 2.57 µM.

Q: And the TGI?
A: The TGI was 11.7 µM.

Q: For `O=CNc1ccc2c(c1)C(=O)c1ccccc1-2`, which TGI is on record?
A: Its TGI is > 100 µM.

Q: With `O=C(Nc1ccc(Oc2ccc(Nc3nc4ccccc4s3)cc2)cc1)Nc1ccc(Cl)c(C(F)(F)F)c1` as the molecule, how does the GI50 read?
A: Its GI50 is 1.11 µM.

Q: What about the TGI of the same molecule?
A: The TGI was 4.34 µM.

Q: How did the GI50 turn out when `Nc1ccc(C2=NNC(=O)Cc3cc4c(cc32)OCCO4)cc1Cl` was run?
A: The GI50 was 7.56 µM.

Q: And the TGI?
A: The TGI was > 50 µM.

Q: For `COc1ccc2nc3cc(Cl)ccc3c(NCCNCC(C)O)c2c1` (centres undefined), which GI50 is on record?
A: The GI50 was 2.54 µM.

Q: What about the TGI of the same molecule?
A: Its TGI is 6.36 µM.

Q: For `CCn1c(-c2nonc2N)nc2c(C#CC(C)(C)O)nc(OC[C@@H](N)c3ccccc3)cc21`, which GI50 is on record?
A: The GI50 was 6.51 µM.

Q: What about the TGI of the same molecule?
A: The TGI was 15.5 µM.

Q: How did the GI50 turn out when `Cn1ccc2c3c(Oc4ccc(NC(N)=O)cc4)ccnc3ccc21` was run?
A: The GI50 was > 100 µM.

Q: What about the TGI of the same molecule?
A: The TGI was > 100 µM.

Q: `CCCOc1cc2ccccc2cc1C(=O)Nc1nc(N)c2c(ccc3nccc32)[nH]1` was tested. Which GI50 did it give?
A: The GI50 was 0.113 µM.

Q: What about the TGI of the same molecule?
A: The TGI was 2.15 µM.

Q: For `CC(=O)OCCOCNC(=S)N/N=C(\C)c1cnccn1`, which TGI is on record?
A: The TGI was > 100 µM.

Q: What does the source list for `Nc1n[nH]c2cc(F)c([C@@H]3Nc4ccc5[nH]ncc5c4[C@H]4C5CCC(C5)[C@@H]34)cc12` (some centres undefined)?
A: GI50: 0.173 µM; TGI: 1.82 µM

Q: Which TGI does the source give for `O=C(Nc1ccccc1-c1nn(C(=S)Nc2ccccc2)c(=S)n(C(=S)Nc2ccccc2)c1=O)C(F)(F)F` here?
A: Its TGI is 50.2 µM.

Q: For `COC[C@H]1Cn2cc(-c3nc(Nc4ccnn4C)ncc3C)nc2C(=O)N1Cc1ccc(F)c(F)c1`, which GI50 is on record?
A: The GI50 was 4.47 µM.

Q: And the TGI?
A: The TGI was > 100 µM.

Q: For `O=c1c(-c2ccccc2)c2oc(c1-c1ccccc1)CSCc1cccc(c1)CSC2`, which TGI is on record?
A: The TGI was > 100 µM.

system: A498 renal; assay: inhibition of tumour cell growth, NCI panel, 48 h

Q: For `COc1cc(/C(C#N)=C/c2nc3c(N4CCOCC4)nc(Cl)nc3n2C)cc(OC)c1OC`, which GI50 is on record?
A: The GI50 was < 0.01 µM.

Q: And the TGI?
A: The TGI was < 0.01 µM.

Q: Which results are given for `Cc1nnc(NC(=O)c2nc(S(=O)(=O)Cc3ccc(F)cc3)ncc2Cl)s1`?
A: GI50: 13.1 µM; TGI: 26.4 µM

Q: How did the GI50 turn out when `CC(C)[C@@H]1C=C2CC[C@H]3[C@](C)(CN)CCC[C@]3(C)[C@H]2CC1` was run?
A: Its GI50 is 2.13 µM.

Q: What about the TGI of the same molecule?
A: Its TGI is 15 µM.

Q: How did the TGI turn out when `O=CNc1ccc2c(c1)C(=O)c1ccccc1-2` was run?
A: Its TGI is > 100 µM.

Q: How did the GI50 turn out when `O=C(Nc1ccc(Oc2ccc(Nc3nc4ccccc4s3)cc2)cc1)Nc1ccc(Cl)c(C(F)(F)F)c1` was run?
A: The GI50 was 1.46 µM.

Q: And the TGI?
A: Its TGI is 3.16 µM.

Q: What does the source list for `Nc1ccc(C2=NNC(=O)Cc3cc4c(cc32)OCCO4)cc1Cl`?
A: GI50: 0.944 µM; TGI: 19.9 µM

Q: For `COc1ccc2nc3cc(Cl)ccc3c(NCCNCC(C)O)c2c1` (centres undefined), which GI50 is on record?
A: Its GI50 is 1.28 µM.

Q: And the TGI?
A: Its TGI is 2.84 µM.

Q: `CCn1c(-c2nonc2N)nc2c(C#CC(C)(C)O)nc(OC[C@@H](N)c3ccccc3)cc21` was tested. Which GI50 did it give?
A: Its GI50 is 2.2 µM.

Q: What about the TGI of the same molecule?
A: Its TGI is 12.4 µM.

Q: How did the GI50 turn out when `Cn1ccc2c3c(Oc4ccc(NC(N)=O)cc4)ccnc3ccc21` was run?
A: Its GI50 is > 100 µM.

Q: And the TGI?
A: Its TGI is > 100 µM.

Q: For `CCCOc1cc2ccccc2cc1C(=O)Nc1nc(N)c2c(ccc3nccc32)[nH]1`, which GI50 is on record?
A: Its GI50 is 0.0312 µM.

Q: And the TGI?
A: Its TGI is 0.622 µM.

Q: With `CC(=O)OCCOCNC(=S)N/N=C(\C)c1cnccn1` as the molecule, how does the TGI read?
A: Its TGI is > 100 µM.

Q: For `Nc1n[nH]c2cc(F)c([C@@H]3Nc4ccc5[nH]ncc5c4[C@H]4C5CCC(C5)[C@@H]34)cc12` (some centres undefined), which GI50 is on record?
A: The GI50 was 0.0787 µM.

Q: What about the TGI of the same molecule?
A: The TGI was 0.288 µM.

Q: With `O=C(Nc1ccccc1-c1nn(C(=S)Nc2ccccc2)c(=S)n(C(=S)Nc2ccccc2)c1=O)C(F)(F)F` as the molecule, how does the TGI read?
A: The TGI was > 76.6 µM.

Q: With `COC[C@H]1Cn2cc(-c3nc(Nc4ccnn4C)ncc3C)nc2C(=O)N1Cc1ccc(F)c(F)c1` as the molecule, how does the GI50 read?
A: Its GI50 is 0.0405 µM.

Q: What about the TGI of the same molecule?
A: Its TGI is 0.291 µM.

Q: With `O=c1c(-c2ccccc2)c2oc(c1-c1ccccc1)CSCc1cccc(c1)CSC2` as the molecule, how does the TGI read?
A: Its TGI is 69.6 µM.

system: ACHN renal; assay: inhibition of tumour cell growth, NCI panel, 48 h

Q: With `COc1cc(/C(C#N)=C/c2nc3c(N4CCOCC4)nc(Cl)nc3n2C)cc(OC)c1OC` as the molecule, how does the GI50 read?
A: Its GI50 is < 0.01 µM.

Q: What about the TGI of the same molecule?
A: The TGI was 4.99 µM.

Q: How did the GI50 turn out when `Cc1nnc(NC(=O)c2nc(S(=O)(=O)Cc3ccc(F)cc3)ncc2Cl)s1` was run?
A: The GI50 was 1.94 µM.

Q: What about the TGI of the same molecule?
A: The TGI was 3.68 µM.

Q: Which GI50 does the source give for `CC(C)[C@@H]1C=C2CC[C@H]3[C@](C)(CN)CCC[C@]3(C)[C@H]2CC1` here?
A: The GI50 was 5.67 µM.

Q: And the TGI?
A: Its TGI is 18.5 µM.

Q: `O=CNc1ccc2c(c1)C(=O)c1ccccc1-2` was tested. Which TGI did it give?
A: The TGI was > 100 µM.

Q: Which GI50 does the source give for `O=C(Nc1ccc(Oc2ccc(Nc3nc4ccccc4s3)cc2)cc1)Nc1ccc(Cl)c(C(F)(F)F)c1` here?
A: Its GI50 is 1.51 µM.

Q: What about the TGI of the same molecule?
A: The TGI was 5.49 µM.

Q: With `Nc1ccc(C2=NNC(=O)Cc3cc4c(cc32)OCCO4)cc1Cl` as the molecule, how does the GI50 read?
A: Its GI50 is 18.8 µM.

Q: What about the TGI of the same molecule?
A: Its TGI is > 50 µM.

— PubChem BioAssay (NCI)
